Measured values as given in patent publication EP4488279A1, “SUBSTITUTED HEXAHYDRO-2H-PYRAZINO[1,2-A]PYRAZIN-1(6H)-ONE DERIVATIVES AS ACTIVATORS OF HUMAN CASEINOLYTIC PROTEASE P (HSCLPP)” (Centro Atlantico del Medicamento S.A (Ceamed, S.A), priority 2023, dated 2025).
Read-outs that look alike come from different tables or passages of the source.

How the values were obtained:
Yeast - HsCIpP = experiment: Yeast growth inhibition screen, yeast without human ClpP (selectivity control); format: cell-based; conditions: Saccharomyces cerevisiae, read-out: Yeast - HsCIpP GI50
Protocol: (§1) These cells contain mutants in YRS1, YRR1, PDR1 and PDR3 genes, which are involved in polydrug and pleiotropic resistance networks.
(§2) The yeast (both HsCpIP+ and HsCIpP-) are incubated in petri dishes with YPD (Yeast extract peptone dextrose) at 25 °C overnight, after which a colony is isolated, suspended in a flask with fresh YPD and incubating again under the same conditions but with agitation. […] 100 µl of this solution was then placed into the appropriated wells of a standard 96-well plate. Stock solutions (DMSO, 10 mM) of the compounds to be tested are diluted in YPD to 2X of their final concentrations to be tested, and 100 µl added to the appropriate wells. 100 µl of YPD was added to wells designated as the negative control wells, while ONC206 (0.5 µM) was used as the positive control. Once all compounds were added to the plate, an initial T = 0 absorbance value was recorded at 600 Nm. The plate was then incubated at 25 °C with gentle shaking for 24 h. The plates can either be read at multiple time points using a TECAN Spark® Multimode Microplate Reader, or at the end of the experiment using a standard spectrophotometer.
(§3) Table 2: Growth inhibition (GI50) values for compounds of the present invention in yeast containing HsCIpP, and yeast without HsCIpP.

MDA-MB-231 = experiment: MTT cell viability assay, MDA-MB-231; format: cell-based; conditions: Homo sapiens, MDA-MB-231 cells, 72 H, average of at least two independent experiments
Protocol: This a human breast cancer cell line derived from a metastatic site from a person.
(§4) Cell viability was assayed by measuring the mitochondrial reduction of the tetrazolium salt 3-(4,5-methyltiazol-2yl)-2,5diphenyl-tetrazolium bromide] (MTT) (Applichen; A2231,0010) [Mosmann T. J Immunol Methods. […] Oncogene. […] Cells were seeded at a density according to their exponential growth phase (normally 1000 to 5000/well). The cells were cultured at 37 °C in the dark in air containing 5% CO2. After 24h either vehicle (0.05% DMSO), or drug, was added to culture medium at the indicated concentrations (10 to 0,01microM). After another 72 h, MTT (0.3 mg/ml) was added to cells, followed by incubation for 2-4h at 37 °C in the dark. The medium was then removed, and the precipitated formazan was solubilized by the addition of DMSO (200 µL).

DU-145 = experiment: MTT cell viability assay, DU-145; format: cell-based; conditions: Homo sapiens, DU-145 cells, 72 H, average of at least two independent experiments
Protocol: This a human prostate cancer cell line derived from a metastatic site (brain) of a person.
as §4

U2 OS = experiment: MTT cell viability assay, U2 OS; format: cell-based; conditions: Homo sapiens, U2OS, U2 OS cells, 72 H, average of at least two independent experiments
Protocol: U2 OS [American Type Culture Collection (ATCC) reference number HTB-96]. This is a human bone cancer (a moderately differentiated sarcoma) cell derived from an osteosarcoma patient.
as §4

PANC1 = experiment: MTT cell viability assay, PANC1; format: cell-based; conditions: Homo sapiens, PANC-1, PANC1 cells, 72 H, average of at least two independent experiments
Protocol: This a human cancer cell line derived from the pancreas of a person.
as §4

4T1 = experiment: MTT cell viability assay, 4T1; format: cell-based; conditions: Mus musculus, read-out: IC50 4T1 48 H
Protocol: This a mouse epithelial breast cancer cell line classified as being triple negative and mimics human breast cancer; stage IV.
as §4, with “After another 72 h, MTT (0.3 mg/ml) was added to cells, followed by incubation for 2-4h at 37 °C in the dark.” left out

Yeast + HsCIpP = experiment: Yeast growth inhibition screen, yeast expressing human ClpP; format: cell-based; conditions: Saccharomyces cerevisiae, 24 h, read-out: Yeast + HsCIpP GI50
Description: This technique allows to directionally assemble several DNA fragments into one single DNA piece. It is based on plasmid libraries that share the same DNA backbone but differ in the type of the insert. The assembly of the final cassette is based on the "Golden Gate Cloning" method. Human CLPP gene sequence (codon-optimized for yeast translation) was amplified with well-designed primers from a plasmid kindly provided by Dr. Michael David Tyers (University of Montreal). Once amplified, a MoClo reaction was performed to obtain the final integrative cassette. This cassette was composed as follows: • Type 1: ConLS 3' connector. • Type 2: TDH3 gene promoter (strong and constitutive expression). • Type 3: Amplified human CLPP gene. • Type 4: ADH1 gene terminator. • Type 5: ConR1 5' connector. • Type 6: LEU2 gene as selectable marker for yeast. • Type 7: 3' HO gene homology sequence for yeast integration. • Type 8a: KanR-ColE1 sequence for bacterial amplification and antibiotic resistance. • Type 8b: 5' HO gene homology sequence for yeast integration.
Digestion patterns with several restriction enzymes were carried out to confirm the success of the MoClo system. An extra restriction enzyme reaction (Notl) was performed to linearize the DNA fragment and deplete the bacterial part.
as §1
Yeast cells were transformed with the linearized cassette and transformant colonies were selected on minimum media without leucine. Independent clones were checked by PCR and positive ones were stored at -80 °C until use.
as §2, §3

MDA-MB-231 cells = experiment: cells; conditions: for GI50 / CC50: Homo sapiens, MDA-MB-231, 72 h; for CC50: read-out: LC50; for Result / TGI50: MDA-MB-231 72 H, SRB; for Result: cytostatic or not; for TGI50: total growth inhibition concentration
Protocol: In order to measure the cell population at the time zero (Tz) a plate of cells was stained with SRB 24 hours after seeding. The cell monolayers are fixed with cold 5% (w/v) trichloroacetic acid for 60 minutes at 4°C. The excess of trichloroacetic acid is removed by washing five times with distilled water. Sulforhodamine B (SRB) solution [50 µL at 0.4%(w/v) in 1% acetic acid] is added to each well and plates are incubated for 8 minutes at room temperature. The excess dye is removed by washing five times with 1% (v/v) acetic acid. The bound stain is subsequently solubilized with (100 µL) 10 mM trizma base and the absorbance is read on automated plate reader at a wavelength of 550 nm.
Compounds at various concentrations were added to an identical cell-seeded (non-treated) plate and incubated at 37°C (5% CO2) for an additional […]. Cells were fixed and stained following the same protocol. The measurement of the cell population after 72 hours in the presence of the drug is (Ti). Several wells in the same plate were treated with the control vehicle.
Using the absorbance measurements, time zero (Tz), control growth (C), and test growth in the present of the compound (Ti) the percentage growth inhibition is calculated as: • [(Ti-Tz)/(C-Tz)] x 100 for concentrations for which Ti >/= Tz • [(Ti-Tz)/Tz] x 100 for concentrations for which Ti <Tz
These values were determined using GraphPad software v5 (San Diego, CA).

[1] = yeast without HsCIpP, 24 h at 25 °C, absorbance at 600 nm
[2] = 4T1 cells, 48 H, MTT, average of at least two independent experiments

Compound | GI50 (Yeast - HsCIpP; [1]) [nM] | IC50 (MDA-MB-231) [nM] | IC50 (DU-145) [nM] | IC50 (U2 OS) [nM] | IC50 (PANC1) [nM] | IC50 (4T1; [2]) [nM] | GI50 (Yeast + HsCIpP) [nM] | GI50 (MDA-MB-231 cells) [nM] | CC50 (MDA-MB-231 cells) [nM] | Result (MDA-MB-231 cells) | TGI50 (MDA-MB-231 cells) [µM] | GI50 (Yeast - HsCIpP; 24 h) [nM] | IC50 (4T1; 4T1, 48 h) [nM]
N#Cc1cccc(CN2CCN3CCN(Cc4ccc(F)cc4)C(=O)C3C2)c1 (centres unmarked) [Compound 1] | > 10000 | 120 | 200 | 220 | 195 | 103 | 150 |  |  |  |  |  | 
N#Cc1cccc(CN2CCN3CCN(Cc4cccc(Cl)c4)C(=O)C3C2)c1 (centres unmarked) [Compound 2] | > 10000 | 145 | 250 | 250 | 140 | 165 | 120 |  |  |  |  |  | 
N#Cc1cccc(CN2CCN3CCN(Cc4ccc(Cl)cc4)C(=O)C3C2)c1 (centres unmarked) [Compound 3] | > 10000 | < 100 | < 100 | < 100 | < 100 | < 100 | 65 | < 100 | > 10000 | Cytostatic | >10 |  | 
O=C1C2CN(Cc3cccc(F)c3)CCN2CCN1Cc1ccc(F)cc1 (centres unmarked) [Compound 5] | > 10000 | 240 | 300 | 400 | 250 | 190 | 140 |  |  |  |  |  | 
O=C1C2CN(Cc3cccc(F)c3)CCN2CCN1Cc1ccc(Cl)cc1 (centres unmarked) [Compound 6] | > 10000 | 190 | 250 | 300 | 190 | 150 | 60 |  |  |  |  |  | 
O=C1C2CN(CCCCC(F)(F)F)CCN2CCN1Cc1ccc(F)cc1 (centres unmarked) [Compound 7] | > 10000 | 430 | 500 | 500 | 330 | 340 | 2050 |  |  |  |  |  | 
O=C1C2CN(CCCCC(F)(F)F)CCN2CCN1Cc1ccc(C(F)(F)F)cc1 (centres unmarked) [Compound 8] | > 10000 | 400 |  | 2000 | 350 | 310 | 1650 |  |  |  |  |  | 
O=C1C2CN(Cc3ccccc3)CCN2CCN1Cc1cccc(Cl)c1 (centres unmarked) [Compound 9] | > 10000 | 935 | 1080 | 1140 | 830 | 930 | 690 |  |  |  |  |  | 
O=C1C2CN(Cc3ccccc3)CCN2CCN1Cc1ccc(C(F)(F)F)cc1 (centres unmarked) [Compound 10] | > 10000 | 635 | 640 | 1000 | 640 | 650 | 180 |  |  |  |  |  | 
O=C1C2CN(Cc3ccccc3)CCN2CCN1Cc1ccc(F)cc1 (centres unmarked) [Compound 11] | > 10000 | 490 | 410 | 800 | 600 | 515 | 620 |  |  |  |  |  | 
N#Cc1cccc(CN2CCN3CCN(Cc4ccc(C(F)(F)F)cc4)C(=O)C3C2)c1 (centres unmarked) [Compound 12] | > 10000 | < 100 | 100 | 200 | < 100 | < 100 | 75 | < 100 | > 10000 | Cytostatic | >10 |  | 
O=C1C2CN(Cc3cccc(F)c3)CCN2CCN1Cc1cccc(C(F)(F)F)c1 (centres unmarked) [Compound 13, 8-(3-fluorobenzyl)-2-(3-(trifluoromethyl)benzyl)hexahydro-2H-pyrazinof1,2-alpyrazin-1(6H)-one] | > 10000 | 190 | 250 | 300 | 165 | 170 | 40 | 420 | > 10000 | Cytostatic | >10 |  | 
O=C1C2CN(Cc3ccc(C(F)(F)F)cc3)CCN2CCN1Cc1ccc(C(F)(F)F)cc1 (centres unmarked) [Compound 14, 8-(4-trifluoromethylbenzyl)-2-(4-(trifluoromethyl)benzyl)hexahydro-2H-pyrazino[1,2-a]pyrazin-1(6H)-one] |  |  |  |  | 240 | 2220 | 2580 |  |  |  |  | > 10000 | 
Cc1ccccc1CN1C(=O)C2=C(CCN(Cc3ccccc3)C2)N2CCN=C12 [ONC201, reference compound] |  | 2280 | 1710 | 4800 | 1720 |  |  |  |  | Cytostatic | >10 |  | 2220
O=C1C2=C(CCN(Cc3ccccc3)C2)N2CCN=C2N1Cc1ccc(F)cc1F [ONC206, reference compound] |  | 600 | 370 | 800 | 300 | 600 | 4560 | 730 |  | Cytostatic | >10 | > 10000 | 
